# Test results from BindingDB's records for doi:10.7270/Q2F769ZM (The Scripps Research Institute Molecular Screening Center, 2007).
# Where a name gives a salt, the structure may show the parent alone.
# Biological target: Rho-associated protein kinase 2 (Homo sapiens, UniProt O75116)
# Experiment: ROCK2 kinase inhibitor potency, dose response, biochemical, Kinase-Glo luminescence, S6 peptide, 1536-well (AID 644)
# Conditions: not given
# Rho-associated protein kinase 2, sequence (O75116 whole entry): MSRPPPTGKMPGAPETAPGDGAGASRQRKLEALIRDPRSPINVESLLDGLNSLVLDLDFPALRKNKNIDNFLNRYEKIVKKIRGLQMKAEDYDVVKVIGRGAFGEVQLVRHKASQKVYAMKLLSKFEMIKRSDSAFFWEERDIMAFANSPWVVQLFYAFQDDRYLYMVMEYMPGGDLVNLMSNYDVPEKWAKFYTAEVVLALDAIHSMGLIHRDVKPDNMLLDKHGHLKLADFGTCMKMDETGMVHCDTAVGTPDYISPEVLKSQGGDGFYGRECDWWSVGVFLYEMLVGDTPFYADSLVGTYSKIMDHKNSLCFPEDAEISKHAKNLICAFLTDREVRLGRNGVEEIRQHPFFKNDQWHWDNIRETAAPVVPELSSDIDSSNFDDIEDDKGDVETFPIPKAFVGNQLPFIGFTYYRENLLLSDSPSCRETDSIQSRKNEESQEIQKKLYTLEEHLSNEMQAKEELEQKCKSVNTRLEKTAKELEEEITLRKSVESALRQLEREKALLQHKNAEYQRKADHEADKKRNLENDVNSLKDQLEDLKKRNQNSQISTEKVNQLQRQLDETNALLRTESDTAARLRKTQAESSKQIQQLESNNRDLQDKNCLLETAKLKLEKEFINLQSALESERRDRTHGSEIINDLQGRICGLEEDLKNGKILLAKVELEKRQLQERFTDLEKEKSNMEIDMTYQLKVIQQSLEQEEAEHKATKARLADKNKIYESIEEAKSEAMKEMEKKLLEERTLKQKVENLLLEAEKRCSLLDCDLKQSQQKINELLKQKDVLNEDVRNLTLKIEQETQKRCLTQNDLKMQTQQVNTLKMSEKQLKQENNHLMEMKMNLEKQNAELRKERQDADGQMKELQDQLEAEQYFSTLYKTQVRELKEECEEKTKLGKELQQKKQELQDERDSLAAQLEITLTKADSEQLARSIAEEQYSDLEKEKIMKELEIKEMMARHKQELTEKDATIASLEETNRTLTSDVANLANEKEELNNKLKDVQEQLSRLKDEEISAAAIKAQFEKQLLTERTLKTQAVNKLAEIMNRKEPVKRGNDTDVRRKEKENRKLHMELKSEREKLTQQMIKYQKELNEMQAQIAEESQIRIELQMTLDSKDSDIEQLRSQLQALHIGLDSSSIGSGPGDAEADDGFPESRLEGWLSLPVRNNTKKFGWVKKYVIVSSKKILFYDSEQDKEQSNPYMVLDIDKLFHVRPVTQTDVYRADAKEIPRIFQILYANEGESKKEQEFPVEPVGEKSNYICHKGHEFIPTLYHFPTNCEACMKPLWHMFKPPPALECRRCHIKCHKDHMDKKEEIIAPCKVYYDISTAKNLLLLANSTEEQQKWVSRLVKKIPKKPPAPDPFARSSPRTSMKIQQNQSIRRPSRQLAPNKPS
row,IC50,Compound
1,17.5 µM,"COc1cc(C=Nn2nnnc2N)ccc1OCc1ccc(F)cc1 [1-[[4-[(4-fluorophenyl)methoxy]-3-methoxy-phenyl]methylideneamino]-1,2,3,4-tetrazol-5-amine]"
2,> 59.6 µM,"CCn1cc(C(=O)Nn2cnnc2)c(=O)c2ccc(C)nc21 [1-ethyl-4-keto-7-methyl-N-(1,2,4-triazol-4-yl)-1,8-naphthyridine-3-carboxamide]"
3,> 19.9 µM,"N#Cc1c(N=Cc2ccco2)sc2c1CCCCC2 [2-(2-furanylmethylideneamino)-5,6,7,8-tetrahydro-4H-cyclohepta[b]thiophene-3-carbonitrile]"
4,> 59.6 µM,"N#Cc1c(N=Cc2cccs2)sc2c1CCCCC2 [2-(2-thenylideneamino)-5,6,7,8-tetrahydro-4H-cyclohepta[b]thiophene-3-carbonitrile]"
5,> 19.9 µM,"Cn1c(CSCc2ccc(Cl)c(Cl)c2)nnc1SCC(=O)Nc1nccs1 [2-[(5-{[(3,4-dichlorobenzyl)thio]methyl}-4-methyl-4H-1,2,4-triazol-3-yl)thio]-N-1,3-thiazol-2-ylacetamide]"
6,127 µM,N#CC1C(=N)Oc2cc(O)ccc2C1c1ccncc1 (stereo not given) [2-amino-7-hydroxy-4-(4-pyridyl)-4H-chromene-3-carbonitrile]
7,> 59.6 µM,CCCCc1c(C)nc(N)[nH]c1=O [2-azanyl-5-butyl-6-methyl-1H-pyrimidin-4-one]
8,> 59.6 µM,"c1coc(CNc2ncnc3sc4c(c23)CCCCC4)c1 [2-furfuryl(6,7,8,9-tetrahydro-5H-cyclohepta[4,5]thieno[1,2-c]pyrimidin-4-yl)amine]"
9,> 59.6 µM,"O=c1ccc(=O)n2n1CC(O)C2 [2-hydroxy-2,3-dihydro-1H-pyrazolo[1,2-a]pyridazine-5,8-dione]"
10,> 59.6 µM,O=C(O)c1cc(NCc2ccc3c(c2)OCO3)ccc1N1CCOCC1 [2-morpholino-5-(piperonylamino)benzoic acid]
11,> 19.9 µM,"Fc1ccccc1Cn1nnc2c(-n3ccnc3)ncnc21 [3-(2-Fluoro-benzyl)-7-imidazol-1-yl-3H-[1,2,3]triazolo[4,5-d]pyrimidine]"
12,> 59.6 µM,"COc1ccc(CCC(=O)Nc2nc3c(s2)CN(C)CC3)cc1OC [3-(3,4-dimethoxyphenyl)-N-(5-methyl-6,7-dihydro-4H-[1,3]thiazolo[5,4-c]pyridin-2-yl)propanamide]"
13,> 19.9 µM,"COc1ccc2cc3c(N)c(C(=O)NCc4ccco4)sc3nc2c1 [3-Amino-7-methoxy-thieno[2,3-b]quinoline-2-carboxylic acid (furan-2-ylmethyl)-amide]"
14,6.83 µM,COc1ccc2c(Cl)c(C(N)=O)sc2c1 [3-Chloro-6-methoxy-benzo[b]thiophene-2-carboxylic acid amide]
15,> 59.6 µM,"CN(C(=O)c1cccc(-n2c(O)c3c(c2O)CC=CC3)c1)C1CCCCC1 [3-[1,3-bis(oxidanylidene)-3a,4,7,7a-tetrahydroisoindol-2-yl]-N-cyclohexyl-N-methyl-benzamide]"

# Further lines, the compound ahead of its results:
row,Compound,IC50
1,O=C(Nc1nc(-c2ccncc2)cs1)C1COc2ccccc2O1 (stereo not given),< 0.00303 µM
2,C1=C(c2c[nH]c3ccccc23)CCNC1,2.53 µM
3,Nc1nonc1-c1nc2ccccc2[nH]1,23.1 µM
4,COc1ccc2[nH]c(=O)c3c(c2c1)OC(C)(C)C=C3,> 19.9 µM
5,O=C(CSc1nnc(-c2ccncc2)[nH]1)c1ccccc1,0.765 µM
6,Cc1[nH]nc2c1C(c1ccc(-c3ccccc3C#N)o1)C(C#N)C(=N)O2 (stereo not given),> 19.9 µM
7,COc1cc(N=CC2C(=O)Nc3ccccc32)cc(OC)c1OC (stereo not given),10.5 µM
8,O=C(Nn1c(=S)[nH]c2ccccc2c1=O)c1ccncc1,> 19.9 µM
9,c1ccc2c(-c3ccncc3)c[nH]c2c1,0.8 µM
10,C[C@H]1CNCCN1S(=O)(=O)c1cccc2cnccc12,0.1 µM
11,Nc1ccc2cn[nH]c2c1,> 19.9 µM
12,"CCN1C(=O)N(CC)C(O)(c2ccccc2)C1(O)c1ccccc1 (stereo not given) [1,3-diethyl-4,5-bis(oxidanyl)-4,5-diphenyl-imidazolidin-2-one]",> 59.6 µM
13,"Cc1cccc2cc(=O)[nH]c(C)c12 [1,8-dimethyl-2H-isoquinolin-3-one]",> 59.6 µM
14,Nc1nc2ccccc2n1C(=O)CCc1ccccc1 [1-(2-Amino-benzoimidazol-1-yl)-3-phenyl-propan-1-one],> 59.6 µM
15,CC(=O)c1cccc(NC(=O)NCc2cccs2)c1 [1-(3-acetylphenyl)-3-(2-thenyl)urea],> 59.6 µM
16,CC(=O)n1cc(-c2ccncc2)c2ccccc21 [1-(3-pyridin-4-yl-1-indolyl)ethanone;hydrochloride],8.16 µM
17,"CC(C)(C)C(=O)c1sc(Nc2ccccc2)nc1N [1-(4-amino-2-anilino-1,3-thiazol-5-yl)-2,2-dimethyl-1-propanone]",> 59.6 µM
18,CN1c2cccc3cccc(c23)C1N=O (stereo not given) [1-Methyl-1H-benzo[cd]indol-2-one oxime],> 19.9 µM
19,CC(=O)c1ccc(OCC(O)COc2ccc(C(C)=O)cc2)cc1 [1-[4-[3-(4-acetylphenoxy)-2-hydroxy-propoxy]phenyl]ethanone],> 59.6 µM

# Same assay, conditions: inactive by the depositor's call
row,IC50,Compound
1,143 µM,"NC(=O)c1sc2nc(N3CCCCC3)c3c(c2c1N)CCCC3 [1-amino-5-(1-piperidinyl)-6,7,8,9-tetrahydrothieno[2,3-c]isoquinoline-2-carboxamide]"
2,20.5 µM,N#Cc1cc2c(nc1SCc1ccncc1)CCC2 [2-(4-pyridylmethylthio)-1-pyrindan-3-carbonitrile]
3,23.4 µM,O=C(CSc1nc(-c2ccc(F)cc2)c[nH]1)Nc1cccc(O)c1 [2-[5-(4-Fluoro-phenyl)-1H-imidazol-2-ylsulfanyl]-N-(3-hydroxy-phenyl)-acetamide]
4,19.5 µM,NC(=O)c1c(-c2cccs2)csc1N [2-amino-4-(2-thienyl)thiophene-3-carboxamide]
5,86.7 µM,Cc1c(C(=O)N2CCCCC2)sc(N)c1C#N [2-amino-4-methyl-5-(piperidine-1-carbonyl)thiophene-3-carbonitrile]
6,79.1 µM,"Clc1ccccc1-c1nnc2sc(-c3ccncc3)nn12 [3-(2-chlorophenyl)-6-(4-pyridyl)-[1,2,4]triazolo[3,4-b][1,3,4]thiadiazole]"
7,1010 µM,Cc1c(C(=O)Nc2ccc3oc(-c4cccnc4)nc3c2)oc2ccccc12 [3-Methyl-benzofuran-2-carboxylic acid (2-pyridin-3-yl-benzooxazol-5-yl)-amide]

# Further lines, the compound ahead of its results:
row,Compound,IC50
1,COC1(OC)N=C(N)C2(C#N)C(c3ccc4c(c3)OCO4)C12C#N (stereo not given),47.9 µM
2,c1coc(CNc2ncnc3[nH]cnc23)c1,21.4 µM
3,Brc1ccc2[nH]ncc2c1,16.3 µM
4,Nc1ccc2[nH]ncc2c1,12.9 µM
5,"Cc1c(C)n(C)c2ccc(C(=O)NCc3cccs3)cc12 [1,2,3-trimethyl-N-(2-thenyl)indole-5-carboxamide]",12 µM
6,CCN1CCN(Cc2nnnn2C(C)(C)C)CC1 [1-(1-tert-Butyl-1H-tetrazol-5-ylmethyl)-4-ethyl-piperazine],17.4 µM
7,"O=C(Nc1ccncc1)Nc1ccc(F)cc1F [1-(2,4-difluorophenyl)-3-(4-pyridyl)urea]",19 µM
8,"CN1C(=O)CSc2ccc(NC(=O)NCc3cccnc3)cc21 [1-(3-keto-4-methyl-1,4-benzothiazin-6-yl)-3-(3-pyridylmethyl)urea]",10.1 µM
9,"Nc1ncnc2c1cnn2-c1ccccc1 [1-Phenyl-1H-pyrazolo[3,4-d]pyrimidin-4-ylamine]",20.5 µM
